Measurements as given in patent publication US20240091203A1, “METHODS FOR TREATING NON-OBSTRUCTIVE HYPERTROPHIC CARDIOMYOPATHY” (Cytokinetics, Incorporated, priority 2022, published 2024).
Read-outs that look alike come from different tables or passages of the source.

Key:
[1] = tested on: patients with symptomatic non-obstructive HCM (nHCM) or HCM with MVO; assay: Phase 2 trial (Example 2): NYHA Functional Classification; type: in vivo, human
From the text: Other exploratory endpoints included: (i) Change in NYHA Functional Classification from baseline to Week 10; and (ii) For patients with baseline NYHA Class III disease, percentage with improvement to NYHA Class I or II disease at Week 10.

[2] = tested on: patients with symptomatic non-obstructive HCM (nHCM) or HCM with MVO; assay: Phase 2 trial (Example 2): exploratory responder analysis in subgroups; type: in vivo, human
Protocol: An exploratory responder analysis was performed to consider treatment effect in certain subgroups of patients.

[3] = tested on: patients with symptomatic non-obstructive HCM (nHCM) or HCM with MVO; assay: Phase 2 trial (Example 2): patient-reported outcomes (KCCQ-CSS, SAQ-AF); type: in vivo, human
From the text: Health Status and Health-related Quality of Life: when available, patients completed patient-reported outcome (PRO) questionnaires prior to dosing at Day 1, at Week 6, at Week 10 and at Week 12. The following instruments were be used at these visits: by Short Form 36 physical function sub-scale (SF-36-PFS), Kansas City Cardiomyopathy Questionnaire Clinical Summary Score (KCCQ-CSS), SAQ7, PGI-C (Week 10 only), and CGI (Week 10 only).
The exploratory health status and health-related quality of life endpoints included but were not limited to change from baseline to Week 10 and a slope of change from baseline to Week 10 in: (i) T-scores for PROMIS Dyspnea Severity Short Form 10a, PROMIS Dyspnea Severity Short Form 10a with two additional items, PROMIS Fatigue Short Form 7a, and PROMIS Physical Function Short Form 8b; (ii) Norm-based T scores for SF-36 Physical Functioning subscale; (iii) Individual responses to the HCM Global Impression of Status questionnaire at baseline, Week 6, and Week 10; (iv) Individual responses to the HCM Global Impression of Change questionnaire at Week 6 and Week 10; (v) Change in KCCQ score from baseline to Week 10; and (vi) Change in SAQ7 score from baseline to Week 10.

healthy adults = tested on: healthy adults; set-up: species or system human; settings: in vivo
From the text: Study Overview and Ethics. The study used a randomized, placebo-controlled, single-ascending dose (SAD) and multiple-ascending dose (MAD) design (FIG. 2). […] Dose escalation was to be stopped when this range was achieved, or when a non-tolerated dose was identified, if earlier.
Participants and Treatments. To be eligible for this study, participants were to be healthy adults aged 18 to 55 years, with body mass index of 18.0 to 32.0 kg/m^2, normal electrocardiogram (ECG) and clinical laboratory values, or only minor abnormalities that were deemed not clinically significant. Participants also had to have normal cardiac structure and function, with LVEF ≥60% for the first 4 SAD cohorts, ≥65% for subsequent SAD cohorts, all MAD cohorts, and the food-effect cohort, and ≥55% for the CYP2D6-PM cohort. Before the study, participants were not allowed to use any prescription medication within 14 days, over-the-counter medication within 7 days (except acetaminophen), or tobacco or nicotine within 3 months; in addition, they were not permitted to consume alcohol, caffeine, or grapefruit within 48 h before study check-in.
A randomization schedule was centrally generated for each cohort and treatment period. […] Study drug was administered following an overnight fast, except during the fed period in the food-effect cohort.
Single-ascending dose (SAD) cohorts. The SAD portion of the study used a randomized, double-blind, placebo-controlled, sequential, escalating-dose design, in which participants received single-ascending oral doses of the study drug. Seven cohorts were dosed in sequence (FIG. 2).
Recommendations regarding dose escalation in the SAD cohorts—and in the MAD cohorts described below—were made by the treating investigator (who was blinded to treatment group) and endorsed or not by the Dose Level Review Committee (DLRC), who were unblinded. […] Criteria for escalation included that no more than 2 participants in a dose group developed an LVEF <50% and no individual developed an LVEF <45%.
Multiple-ascending dose (MAD) cohorts. The MAD cohorts also used a randomized, double-blind, placebo-controlled, sequential design.
CYP2D6 genotypes were determined at screening for all study participants; those identified as CYP2D6-PMs were excluded from the SAD and MAD cohorts but were invited to participate in the CYP2D6-PM cohort. The first individual in the CYP2D6-PM cohort was dosed after the SAD 25-mg cohort (FIG. 2). […] Nine participants were randomized (7:2) with a sentinel dosing group consisting of the first 2 participants treated.
Food-effect cohort. […] Participants were randomized in a 1:1 ratio to 1 of 2 sequences: fasted/fed or fed/fasted.
Safety and tolerability. Safety was assessed by the incidence of adverse events (AEs) and by incidence of reduced LVEF. Treatment-emergent AEs (TEAE) were defined as AEs that began or increased after study drug administration. All AEs were coded using the Medical Dictionary for Regulatory Activities version 21.1 and graded using the National Cancer Institute Common Terminology Criteria for AEs (version 4.03) 5-point severity scale. Each AE was judged as either related or unrelated to the study drug by the treating investigator. Clinical laboratory tests were obtained at regular intervals in all cohorts.
For safety monitoring, participants in all cohorts had periodic echocardiograms, which were assessed by a cardiologist. In the SAD and MAD cohorts, echocardiograms were also reviewed by an echocardiography core laboratory for PD assessments, as described below. In addition, participants in all cohorts were monitored with continuous 12-lead ECG recording using Holter monitors. For safety monitoring, a single 12-lead ECG was extracted at screening, pre-dose, and periodically throughout follow-up, and interpreted by the investigator. […]

For `CCc1nc(-c2ccc3c(c2)CC[C@H]3NC(=O)c2cnn(C)c2)no1` [aficamten, (R)—N-(5-(5-ethyl-1,2,4-oxadiazol-3-yl)-2,3-dihydro-1H-inden-1-yl)-1-methyl-1H-pyrazole-4-carboxamide], the “patients with a change of ≥1 NYHA Class” value ([1]; 22 of 41 patients, interim) was 54%, the “patients with functional improvement of ≥1 NYHA class” value ([1]; Week 10, second interim, p=0.011 vs assumed 37% placebo effect) was 56% and the “patients achieving NYHA Class 1 (asymptomatic)” value ([1]; by Week 10, second interim) was 28%. The “patients who improved from NYHA Class II to I” value ([1]; interim) was 8 patients, the “patients who improved from NYHA Class III to I” value ([1]; interim) was 4 patients and the “patients who improved from NYHA Class III to II” value ([1]; interim) was 12 patients. The “responder analysis: treatment effect in other subgroups” value ([2]; beta-blockers or not, elevated TnI or E/e′ or not, genetic or family history of HCM or not) was “Consistent treatment effects”, the “responder analysis: treatment effect by BMI” value ([2]; patients with BMI ≥30 compared to BMI <30) was “potential differential treatment effect” and the “patients improving KCCQ-CSS by ≥5 points” value ([3]; 21 patients, week 10, interim) was 54%. The “improvement in KCCQ-CSS, median (IQR)” value ([3]; from baseline median (IQR) 69.8 (56.8, 83.9), interim) was 7.3 (−1.0, 18.8) points, the “patients with clinical reduction in symptom burden (KCCQ-CSS)” value ([3]; week 10, second interim) was 58% and the “improvement in mean KCCQ-CSS” value ([3]; week 10, second interim, p<0.0001) was 10.6 points. For the same compound, the “Echocardiogram-related AE of decreased ejection fraction <45%: Onset (time after drug dose)” value (healthy adults; female, human) was 1.4 h, the QTcF (healthy adults; human) was at most 450 ms and the “increase in QTcF interval” value (healthy adults; human) was at most 30 ms. The “participants with echocardiogram-related AEs of decreased ejection fraction <45%” value (healthy adults; human) was 3 participants, the “time to resolution of echocardiogram-related AEs of decreased ejection fraction” value (healthy adults; human) was 2.5 to 4.6 h and the “LVEF of 1 participant after cohort expansion” value (healthy adults) was under 45%. For the same compound, the “decrease in LVEF of 1 participant after cohort expansion” value (healthy adults) was over 15%, the “discontinuation of the study due to AEs” value (healthy adults) was “no participants discontinued” and the “mean safety ECG parameters” value (healthy adults) was “within normal limits”. For the same compound, the “post-dose LVEF of sentinel participant” value (healthy adults) was under 45%, the “post-dose LVEF of the participant with LVEF <50%” value (healthy adults) was 46.2% and the “serum chemistry, hematology, or urinalysis findings” value (healthy adults) was “No clinically significant”. The vital signs (healthy adults) was “within normal limits” and the “Echocardiogram-related AE of decreased ejection fraction <45%: Onset (time after drug dose)” value (healthy adults; male, human) was 1.5 h.
